{"source": "paper PMC5603865", "about": "“Synthesis, In-Vitro Activity and Metabolic Properties of Quinocetone and Structurally Similar Compounds” (Iranian Journal of Pharmaceutical Research : IJPR, 2017)", "key": {"HepG2 cells [1]": {"test_system": "HepG2 cells", "test": "In-vitro cytotoxicity, MTT cell proliferation assay", "format": "cell-based, human", "conditions": "24 h incubation, concentration reducing viable cells by 50%", "protocol": "(§1) All test compounds were dissolved in dimethyl sulfoxide (DMSO, Sigma, USA) and then diluted in Dulbecco’s modified Eagle’s medium (DMEM, Gibco, USA) at desired concentrations for cell proliferation analyses or diluted in nutrient broth medium for antimicrobial susceptibility testing respectively. The final concentration of DMSO in the DMEM culture medium was under 0.1% (v:v).\n(§2) HepG2 and normal human Chang liver cells were obtained from the Institute of Biochemistry and Cell Biology, Shanghai Institutes for Biological Sciences, Chinese Academy of Sciences (Shanghai, China). HepG2 and normal human Chang liver cells were cultured at 37˚Cwith 5% CO2 in DMEM supplemented with 2% L-glutamine, 10% fetal bovine serum (Gibco, USA), 100 U/mL penicillin and 100 […] (Gibco, USA).\n(§3) The methodology for evaluating the cytotoxicity inhibitory activity of various test compounds towards cell proliferation has been described previously ([11], [17]). Cell proliferation inhibitory analyses were carried out using the 3-(4,5-dimethylthiazole-2-yl)-2,5-diphenyl tetrazolium bromide (MTT, Sigma, USA) assay. Briefly, cancers HepG2 and normal human Chang liver cells were harvested and resuspended in fresh growth medium. A 100 μL cell suspension (5 × 10^4 cells/mL) was aliquoted into each well of a 96-well culture plate. After 12 h incubation, the medium was replaced with fresh medium containing various concentrations of test compounds. The cells were then incubated for another 24 h. At the end of exposure, 10 μL of MTT solution (5 mg/mL) was added, and the cells were incubated for 4 h at 37 °C. The cells were treated with 100 μL DMSO, and absorbance was recorded at 570 nm using a microplate ELISA reader (ELX800, Bio-Tek, USA). All experiments were performed at least thrice, and data were presented as the mean of sixplicate wells ± standard deviation (SD). Cell inhibition was calculated as follows:\n(§4) (OD of control group − OD of experimental group) / (OD of control group − OD of blank group) ×100%. The IC50 value for a compound was calculated using SPSS."}, "Salmonella pullorum": {"test_system": "Salmonella pullorum", "test": "In-vitro antibacterial activity, MIC by broth dilution", "format": "cell-based", "conditions": "Salmonella enterica, PULLORUM, 24 h", "protocol": "as §1\n(§5) The preliminary antibacterial activities were obtained for selected compounds against various bacteria, namely: Staphyloccocus aureus ATCC25923 (Gram-positive bacteria), Clostridium perfringen CVCC52,8604 (anaerobes bacteria), Salmonella pullorum (Gram-negative bacteria), Escherichia coli ATCC25922 (Gram negative bacteria) and Aeromonas hydrophila (Gram-negative bacteria) were used in the study. Each strain was cultured in appropriate broth medium. Clostridium perfringen was incubated in an anaerobic chamber. The minimum inhibitory concentration (MIC) for each test compound was estimated using the broth dilution method. The MIC’s was determined for each strain/compound pairs that presented antimicrobial activity. The method was modified from Mohapatra›s methods ([14], [15]). Cell suspensions were prepared in 2 mL of liquid medium with concentrations of various tests of compounds in 15 mL culture tubes by inoculation with 100 μL of 10^6 cfu/mL from each stock. The cultures were incubated at 28 °C or 37 °C for 24 h. Tubes showing no visible turbidity represented the MIC, and subsequently, were inoculated on the right side of the 9cm sterile nutrient agar plates without various test compounds and incubated for 24 h (Clostridium perfringen was incubated in an anaerobic chamber.). The least concentration, at which no growth was observed, represented the minimum bactericidal concentration (MBC) ([16])."}, "Aeromonas hydrophila [2]": {"test_system": "Aeromonas hydrophila", "test": "In-vitro antibacterial activity, MIC by broth dilution", "format": "cell-based", "conditions": "Aeromonas hydrophila, 24 h, read-out: MIC values Aeromonas hydrophila", "protocol": "as §1, §5"}, "[3]": {"test_system": "Escherichia coli ATCC25922", "test": "In-vitro antibacterial activity, MIC by broth dilution", "format": "cell-based", "conditions": "Escherichia coli, ATCC25922; broth dilution, 24 h; read-out: MIC values Escherichia coli ATCC25922", "protocol": "as §1, §5"}, "[4]": {"test_system": "Staphyloccocus aureus ATCC25923", "test": "In-vitro antibacterial activity, MIC by broth dilution", "format": "cell-based", "conditions": "broth dilution, 24 h; read-out: MIC values Staphyloccocus aureus ATCC25923", "protocol": "as §1, §5"}, "[5]": {"test_system": "Gram-positive and Gram-negative bacteria", "test": "Antibacterial activity class based on the MIC results", "format": "cell-based", "protocol": "as §5\nIn this study, activity of quinoxaline-1, 4-dioxides and their deoxygenations was tested against selected Gram-negative bacteria (Escherichia coli, Salmonella pullorum and Aeromonas hydrophila), Gram-positive bacteria (Staphyloccocus aureus and Clostridium perfringen). The in-vitro antibacterial activity was based on the MIC results: Strong antibacterial activity, if MIC is less than 50 μg/mL; Moderate, if MIC is in between 50 and 250 μg/mL; No activity, if MIC is more than 500 μg/mL."}, "[6]": {"test_system": "Clostridium perfringen CVCC52,8604", "test": "In-vitro antibacterial activity, MIC by broth dilution (anaerobic chamber)", "format": "cell-based", "conditions": "Clostridium, 24 h", "protocol": "as §1, §5"}, "[7]": {"test_system": "normal human Chang liver cells", "test": "In-vitro cytotoxicity, MTT cell proliferation assay", "format": "cell-based", "conditions": "24 h incubation, concentration reducing viable cells by 50%", "protocol": "as §1, §2, §3, §4"}, "[8]": {"test_system": "HepG2, Vero, L-02 and Chang liver cell lines", "set-up": "method as in PMID 19061932, PMID 22840332", "conditions": "in-vitro, ref [7],[11]; cited from earlier work"}, "HepG2 cells [9]": {"test_system": "HepG2 cells", "test": "Identification of metabolic pathways in HepG2 cells by LC-MS/MS", "format": "in vitro ADME, human", "conditions": "HepG2 cells incubated for 24 h", "protocol": "For recognition of the metabolic characteristics of quinocetone (3a), deoxyquinocetone (5a), olaquindox, 3-methyl-2-(3-fura-2-propenoyl)-quinoxaline -1,4-dioxide 6, and 3-methyl -2-quinoxaline-2-carboxylate-1,4-dioxide 8, HepG2 cells were seeded at 6× 10^4 cells/ml density in 24-well plates. After 24 h incubation, the medium was replaced with fresh medium containing various concentrations ([…]) of test compounds. After 24 h incubation, the medium was collected and extracted with ethyl acetate then centrifuged at […] for 20min at 4 °C. The organic supernatant was evaporated under nitrogen atmosphere at 40 °C, the residue was dissolved in 200μL acetonitrile. The aliquot was filtered by a 0.22 μM membrane then analyzed. The blank is conducted in the absence of pharmaceuticals.\nAll experiments were performed with a Waters Alliance 2695 LC system (Waters) and a quattro micro API quadruple mass spectrometer (Micromass, Manchester, UK) equipped with an electro-spray ion source (ESI).\nLC analysis was carried out on an XTerra C18 HPLC column (2.1 mm×100 mm, 3.5 μM) (Waters, Milford, MA, USA) equipped with a guard column (XTerra C18 2.1 mm×100 mm, 3.5μM) (Waters, Milford, MA, USA). […]\nThe MS instrument was used for analysis operating in a positive ion mode. […] The spectra was recorded in the range m/z 50~500 for full scan MS analysis. […]"}, "Aeromonas hydrophila [10]": {"test_system": "Aeromonas hydrophila", "test": "Minimum bactericidal concentration (MBC), subculture on nutrient agar", "format": "cell-based", "conditions": "least concentration with no growth on agar plates, 24 h", "protocol": "as §5, with “The least concentration, at which no growth was observed, represented the minimum bactericidal concentration (MBC) ([16]).” left out"}, "[11]": {"conditions": "Homo sapiens, Chang liver, 24 h"}}, "note": "Where two headings read alike, the source gives them in different places."}
{"compound": "Cc1c[n+]([O-])c2ccccc2[n+]1[O-]", "note": "[Compound 11, 3-methyl-quinoxaline-1,4-dioxide]", "values": [{"measurement": "IC50", "setting": "HepG2 cells [1]; Homo sapiens, HepG2, 24 h", "value": "465 ± 28.8", "unit": "µM"}, {"measurement": "MIC", "setting": "Salmonella pullorum", "value": 451, "unit": "µg/mL"}, {"measurement": "MIC", "setting": "Aeromonas hydrophila [2]", "value": 225, "unit": "µg/mL"}, {"measurement": "MIC", "setting": "[3]", "value": 56.3, "unit": "µg/mL"}, {"measurement": "MIC", "setting": "[4]", "value": 451, "unit": "µg/mL"}, {"measurement": "antibacterial activity against Gram-positive and Gram-negative bacteria", "setting": "[5]", "value": "little or no activity"}, {"measurement": "MIC", "setting": "[6]", "value": 225, "unit": "µg/mL"}, {"measurement": "melting point", "value": "173.5 to 176.8", "unit": "°C"}, {"measurement": "IC50", "setting": "[7]; [11]", "value": "452 ± 6.86", "unit": "µM"}]}
{"compound": "Cc1c(C(=O)C=Cc2ccccc2)[n+]([O-])c2ccccc2[n+]1[O-]", "note": "[Compound 3a, 3-Methyl-2-(3-phenyl-2-propenoyl)-quinoxaline-1,4-dioxide, reference compound]", "values": [{"measurement": "IC50", "setting": "HepG2 cells [1]", "value": "49.3 ± 1.94", "unit": "µM"}, {"measurement": "IC50", "setting": "HepG2 cells [1]; Homo sapiens, HepG2, 24 h", "value": 49, "unit": "µM"}, {"measurement": "MIC", "setting": "Salmonella pullorum", "value": 49, "unit": "µg/mL"}, {"measurement": "MIC", "setting": "Aeromonas hydrophila [2]; broth dilution", "value": 49, "unit": "µg/mL"}, {"measurement": "MIC", "setting": "[3]", "value": 97.9, "unit": "µg/mL"}, {"measurement": "MIC", "setting": "[4]", "value": 24.5, "unit": "µg/mL"}, {"measurement": "antibacterial activity against Gram-positive and Gram-negative bacteria", "setting": "[5]", "value": "strong or moderate activity"}, {"measurement": "MIC", "setting": "[6]", "value": 196, "unit": "µg/mL"}, {"measurement": "growth inhibitory effects", "setting": "[8]", "value": "significant growth inhibitory effects"}, {"measurement": "IC50", "setting": "[7]", "value": "63.3 ± 5.55", "unit": "µM"}, {"measurement": "IC50", "setting": "[7]; [11]", "value": 63, "unit": "µM"}, {"measurement": "categories of metabolites in HepG2 cells", "setting": "HepG2 cells [9]", "value": "reduction, hydroxylation, and a combination of reduction and hydroxylation"}]}
{"compound": "Cc1c(C(=O)/C=C/c2cccc(O)c2)[n+]([O-])c2ccccc2[n+]1[O-]", "note": "[Compound 3b]", "values": [{"measurement": "IC50", "setting": "HepG2 cells [1]", "value": "30.5 ± 1.3", "unit": "µM"}, {"measurement": "IC50", "setting": "HepG2 cells [1]; Homo sapiens, HepG2, 24 h", "value": 30, "unit": "µM"}, {"measurement": "MIC", "setting": "Salmonella pullorum", "value": 25.8, "unit": "µg/mL"}, {"measurement": "MIC", "setting": "Aeromonas hydrophila [2]; broth dilution", "value": 206, "unit": "µg/mL"}, {"measurement": "MIC", "setting": "[3]", "value": 103, "unit": "µg/mL"}, {"measurement": "MIC", "setting": "[4]", "value": 12.9, "unit": "µg/mL"}, {"measurement": "antibacterial activity against Gram-positive and Gram-negative bacteria", "setting": "[5]", "value": "strong or moderate activity"}, {"measurement": "MIC", "setting": "[6]", "value": 51.5, "unit": "µg/mL"}, {"measurement": "IC50", "setting": "[7]", "value": "68 ± 2.9", "unit": "µM"}, {"measurement": "IC50", "setting": "[7]; [11]", "value": 68, "unit": "µM"}]}
{"compound": "Cc1c(C(=O)NCCO)[n+]([O-])c2ccccc2[n+]1[O-]", "note": "[olaquindox, n-(2-hydroxyethyl)-3-methyl-2-quinoxalinecarboxamide 1,4-dioxide, reference compound]", "values": [{"measurement": "IC50", "setting": "HepG2 cells [1]; Homo sapiens, HepG2, 24 h", "value": "893 ± 14.7", "unit": "µM"}, {"measurement": "MIC", "setting": "Salmonella pullorum", "value": 84.2, "unit": "µg/mL"}, {"measurement": "MIC", "setting": "Aeromonas hydrophila [2]; broth dilution", "value": 21, "unit": "µg/mL"}, {"measurement": "MIC", "setting": "[3]", "value": 21, "unit": "µg/mL"}, {"measurement": "MIC", "setting": "[4]", "value": 42.1, "unit": "µg/mL"}, {"measurement": "MBC", "setting": "Aeromonas hydrophila [10]", "value": 84.2, "unit": "µg/mL"}, {"measurement": "antibacterial activity against Gram-positive and Gram-negative bacteria", "setting": "[5]", "value": "strong or moderate activity"}, {"measurement": "MIC", "setting": "[6]", "value": 67.3, "unit": "µg/mL"}, {"measurement": "growth inhibitory effects", "setting": "[8]", "value": "much lower than quinocetone"}, {"measurement": "IC50", "setting": "[7]; [11]", "value": "815 ± 31.2", "unit": "µM"}]}
